The values that follow are results of earlier work, collected in patent US20070178049A1, “Systems and methods for the delivery of corticosteroids having an enhanced pharmacokinetic profile” (Verus Pharmaceuticals, Inc., priority 2005, published 2007).

Each structure is given as a SMILES string.

In the case of `CCCC1O[C@@H]2C[C@H]3[C@@H]4CCC5=CC(=O)C=C[C@]5(C)[C@H]4[C@@H](O)C[C@]3(C)[C@]2(C(=O)CO)O1` (stereo partly drawn) [budesonide, (R, S)-11β,16α,17,21-tetrahydroxypregna-1,4-diene-3,20-dione cyclic 16,17-acetal with butyraldehyde], the solubility in alcohols result (alcohols) is listed as “readily soluble”. The solubility in water result (water) is “virtually insoluble”.
